Test system: cattle sucking lice (Haematopinus eurysternus, Linognathus vituli)
Assay: Sucking lice efficacy study in cattle, natural infestation, single subcutaneous injection
Assay type: in vivo
Conditions: 1 mg/kg s.c.
Experimental: This study determined the efficacy (via reductions in total lice counts) of fluralaner in an injectable suspension formulation against natural infestations of cattle sucking (Haematopinus eurysternus, Linognathus vituli) and biting/chewing lice (Bovicola bovis) when applied at a single dose to young, lice infested cattle. Treatment efficacy was determined by whole body lice counts post treatment and comparison of treated and untreated (placebo) group mean lice counts. The naturally acquired louse infestations consisted of 2 species of sucking lice (Haematopinus eurysternus and Linognathus vituli) and the biting louse Bovicola bovis. Each animal was examined in a cattle crush prior to being selected from the parent mob to ensure that more than 30 sucking lice (combined total of both sucking lice species) were present. Fluralaner at a dose level of 1.0 mg/kg bw and Control Product were administered to cattle by subcutaneous injection. The numbers of live adults and live nymphs for each species of lice on each animal were counted at 7-day intervals starting with pre-treatment counts on Day −1 and post-treatment on Days 7, 14, 21, 28, 35, 42, 49 and 56.

Cc1cc(C2=NOC(c3cc(Cl)cc(Cl)c3)(C(F)(F)F)C2)ccc1C(=O)NCC(=O)NCC(F)(F)F (stereo not drawn) [Fluralaner, 4-[5-(3,5-dichlorophenyl)-5-trifluoromethyl-4,5-dihydroisoxazol-3-yl]-2-methyl-N-[(2,2,2-trifluoro-ethylcarbamoyl)-methyl]-benzamide]
efficacy (based on Arithmetic Means) against the sucking lice (Day 7): 97.69%
efficacy (based on Arithmetic Means) against the sucking lice (Day 14): 99.89%
lice found on treated cattle (from Day 21 until Day 56): no lice of any species found

Reference: patent US20230095926A1, “PARASITE CONTROL IN RUMINANTS” (Intervet Inc., priority 2019, published 2023)
